These results are taken from PubChem BioAssay (NCI).

The structures appear in SMILES notation. Where “and” joins values, the source holds several entries; their conditions need not be identical. Equal values may be shown once.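 Step 1: Grow cells in 96-well plates. Step 2: Expose to compound for 48 hours at 5 concentrations. Step 3: Interpolate endpoints linearly; if unreached, use highest concentration. Here, GI50 denotes the concentration required for 50% inhibition of growth. TGI denotes the concentration required for complete inhibition of growth.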

What all share (assay): NCI anticancer screen, dose series, 48 h
In test [1] the test system is ACHN renal.
Test [2] concerns CAKI-1 renal.
The subject of test [3] is EKVX NSCLC.
The test system of test [4] is HS 578T breast.
In test [5] the test system is IGROV1 ovarian.
Test [6] concerns KM12 colon.
Test [7] concerns MDA-MB-435.
In test [8] the test system is OVCAR-5 ovarian.
In test [9] the test system is RXF 393 renal.
In test [10] the test system is SR leukemia.

Consider `O=S(=O)(O)c1cc(O)c(N=Nc2ccc(O)cc2O)c2ccccc12`, for which the TGI in [1], in test [2], in [3], in test [4], in [5] and in [6] was more than 100 µM in each case. The TGI in [7], in test [8], in test [9] and in test [10] was more than 100 µM each time.
`COc1cc(Nc2ncc(-c3ccccc3)o2)cc(OC)c1`: the GI50 is 17.4 µM in [1]; more than 19.2 µM in test [2]; more than 25 µM in test [3]; 1.39 µM in test [4]; more than 25 µM in test [5]; 1.59 µM in test [6]. Besides, the GI50 was more than 25 µM in test [7], more than 25 µM in test [8], 8.4 µM in test [9] and more than 17.7 µM in test [10]. Moreover, the TGI in test [1] is more than 25 µM; in test [2], more than 25 µM; in test [3], more than 25 µM; in [4], more than 9.65 µM; in test [5] it was more than 25 µM; in test [6], more than 25 µM. In addition, the TGI in test [7], in test [8], in test [9] and in test [10] was more than 25 µM each time.
As to `CC1(C)CNc2cc(NC(=O)c3cccnc3NCc3ccncc3)ccc21`, the GI50 in [1] was 10.6 µM; in test [2], 21.1 µM; in test [3], 23.6 µM; in test [4], 26.8 µM; in test [5], 19.9 µM; in [6], 38 µM. For the same compound, the GI50 is 26.1 µM in test [7], 50.9 µM in test [8], 11.7 µM in [9] and 26.1 µM in test [10]. Also, the TGI was more than 100 µM in test [1]; more than 100 µM in [2]; more than 95.2 µM in [3]; more than 100 µM in [4]; more than 84.2 µM in test [5]; more than 100 µM in [6]. For the same compound, the TGI is more than 100 µM in test [7], more than 100 µM in test [8], 64.9 µM in [9] and more than 100 µM in test [10].
On to `COc1ccc(Cc2coc3ccccc3c2=O)cc1OC`, for which the TGI was more than 100 µM in test [1]; 49.5 µM in test [2]; more than 100 µM in test [3]; more than 100 µM in test [4]; more than 100 µM in test [5]; more than 100 µM in test [7]. Further, the TGI in test [8], in [9] and in test [10] was more than 100 µM in each case.
For `CC(C)(C)c1ccc(Oc2ccc(N)cn2)cc1`, the GI50 in test [1] is more than 100 µM; in test [2], 21 µM; in test [3], 28.2 µM; in test [4], 43.9 µM; in test [5] it was more than 100 µM; in [6], 44.2 µM. Also, the GI50 was 72.9 µM in test [7], more than 100 µM in test [8], 49.6 µM in test [9] and 30 µM in [10]. For the same compound, the TGI in [1], in test [2], in test [3], in test [4], in test [5] and in [6] was more than 100 µM in each case. Moreover, the TGI in test [7], in [8], in test [9] and in [10] was more than 100 µM in each case.
Regarding `CNC(=O)c1cc(Oc2ccc(NC(=O)Nc3ccc(Cl)c(C(F)(F)F)c3)c(F)c2)ccn1`, the GI50 in test [1] was 3.29 µM and 2.88 µM; in test [2] it was 2.95 µM; in test [3] it was 2.96 µM and 2.68 µM; in [4] it was 1.59 µM and 1.61 µM; in [5], 2.75 µM and 1.85 µM; in test [6], 1.9 µM and 1.49 µM. Besides, the GI50 was 1.56 µM and 1.52 µM in [7]; 2.68 µM and 2.3 µM in [8]; 3.83 µM and 2.91 µM in [9]; 1.9 µM and 2.63 µM in [10]. In addition, the TGI in test [1] is more than 44.9 µM; in [2], more than 30.4 µM; in test [3] it was more than 44 µM; in test [4] it was 16.9 µM and > 10 µM; in test [5] it was 11.2 µM and > 10 µM; in test [6], 7.86 µM and > 10 µM. Also, the TGI is 4.8 µM and 4.85 µM in test [7]; more than 44.4 µM in test [8]; 17 µM and > 10 µM in [9]; 4.38 µM and > 10 µM in test [10].
`CC(N)(Cc1c[nH]c2cccc(F)c12)C(=O)O` (stereo unspecified): the GI50 in test [1] is more than 1000 µM; in test [2], more than 1000 µM; in test [3], more than 1000 µM; in test [4], 786 µM; in [5] it was 364 µM; in test [6], more than 1000 µM. Moreover, the GI50 in [7], in test [8], in test [9] and in test [10] was more than 1000 µM in each case. Further, the TGI in test [1], in [2], in test [3], in test [4], in test [5] and in test [6] was more than 1000 µM throughout. Further, the TGI in [7], in [8], in test [9] and in test [10] was more than 1000 µM in each case.
Take `COc1cccc(CC(C)=C(c2ccc(OCCN3CCCCC3)cc2)c2ccc(OCCN3CCCCC3)cc2)c1`: the GI50 in test [1] was 2.16 µM; in test [2], 2.3 µM; in [3], 2.03 µM; in [4] it was 1.52 µM; in test [5], 1.89 µM; in test [6], 1.93 µM. Moreover, the GI50 is 1.67 µM in test [7], 2.02 µM in [8], 0.916 µM in test [9] and 0.392 µM in test [10]. Further, the TGI in test [1] worked out at 4.07 µM; in test [2], 4.29 µM; in test [3] it was 4.48 µM; in [4], 4.02 µM; in test [5], 3.99 µM; in test [6], 4.11 µM. The TGI in test [7] came to 3.57 µM; in test [8], 3.99 µM; in test [9], 2.88 µM; in [10], 1.2 µM.
As for `C[C@]12CC[C@H]3[C@@H](CC=C4C[C@@H](N5CCCC5)CC[C@@]43C)[C@@H]1C/C(=C\c1cccc(OCCN3CCOCC3)c1)[C@@H]2O`, the GI50 is 4.29 µM in [1]; 6.91 µM in [2]; 8.02 µM in [3]; 2.88 µM in test [4]; 12.8 µM in test [5]; 5.02 µM in [6]. For the same compound, the GI50 was 3.64 µM in test [7], 31 µM in test [8], 1.76 µM in test [9] and 3.03 µM in test [10]. For the same compound, the TGI in test [1] was 32.5 µM; in [2], more than 100 µM; in test [3], more than 100 µM; in test [4], 18.2 µM; in [5], more than 100 µM; in [6], more than 100 µM. The TGI was more than 100 µM in test [7], more than 100 µM in test [8], 3.82 µM in test [9] and more than 100 µM in test [10].
`OC(COC(c1ccccc1)(c1ccccc1)c1ccccc1)C(O)CC1SCCS1` (stereo unspecified): the TGI is 38.3 µM in [1]; 66.6 µM in [2]; 30.7 µM in test [3]; 39.7 µM in test [4]; 30.5 µM in test [5]; 29.8 µM in [6]. Moreover, the TGI worked out at 91.9 µM in test [7], 44 µM in test [8], 32.1 µM in test [9] and 0.953 µM in test [10].
Consider `CC1=C2[C@@H](CC1)[C@]1(C)O[C@@](C(C)C)(C[C@H]1OC(=O)CO)[C@H]2OC(=O)C1CC1c1ccccc1` (stereo partly specified), for which the GI50 was 3.05 µM in test [1]; 11.4 µM in test [2]; 8.21 µM in test [3]; 0.0681 µM in [4]; 19.1 µM in test [5]; 12.9 µM in [6]. In addition, the GI50 was 14.1 µM in test [7], 20.3 µM in [8], 0.405 µM in test [9] and 10.9 µM in [10]. Moreover, the TGI in test [1] came to 20.9 µM; in [2], 24 µM; in test [3] it was 22.7 µM; in [4], 2.38 µM; in [5] it was 46.7 µM; in test [6] it was 27.4 µM. Moreover, the TGI in [7] is 27.3 µM; in test [8] it was 40.4 µM; in test [9], 17.4 µM; in test [10], 34.9 µM.
Consider `CNC(=O)c1c(NC(=O)c2ccc(C(C)(C)C)cc2)sc2c1CCC(=O)C2`, for which the GI50 in [1] was 0.203 µM; in test [2] it was 0.203 µM; in test [3], 0.381 µM; in [4], 0.38 µM; in test [5], 0.373 µM; in test [6], 0.313 µM. The GI50 was 0.335 µM in [7], 0.341 µM in test [8], 0.244 µM in [9] and 0.107 µM in [10]. Also, the TGI is 0.922 µM in test [1]; 0.945 µM in test [2]; 1.7 µM in [3]; 3.07 µM in test [4]; 1.64 µM in test [5]; 1.34 µM in test [6]. The TGI in [7] is 1.42 µM; in test [8], 1.41 µM; in test [9], 1.01 µM.
For the compound `CCC(C)Nc1ccc(N)cc1` (stereo unspecified), the GI50 in test [1] is 3.73 µM; in [2], 16.7 µM; in test [3], 3.47 µM; in [4] it was 4.35 µM; in test [5] it was 4.79 µM; in test [6], 4.09 µM. The GI50 was 4.11 µM in [7], 13.8 µM in test [8], 4.62 µM in test [9] and 2.1 µM in test [10]. For the same compound, the TGI was 13.3 µM in [1]; more than 100 µM in test [2]; 14.8 µM in [3]; 24.4 µM in test [4]; 20.5 µM in [5]; 13.5 µM in [6]. Moreover, the TGI in test [7] is 15.3 µM; in [8], 39.8 µM; in test [9] it was 15.8 µM; in test [10], 5.4 µM.
In the case of `Nc1ccc(C(=O)N/C(=C\c2cccc([N+](=O)[O-])c2)c2nc3[nH]c(=S)[nH]c(=O)c3[nH]2)cc1`, the TGI in [1] is more than 100 µM; in test [2] it was more than 100 µM; in test [3], more than 100 µM; in test [4], more than 91.2 µM; in [5] it was more than 100 µM; in [6], more than 100 µM. For the same compound, the TGI in [7] is more than 100 µM; in test [8], more than 100 µM; in test [9] it was 55.9 µM; in [10], more than 100 µM.
Turning to `CN(C)c1ccc2oc(=O)c3ccccc3c2c1`, the TGI in [1] is 62.9 µM; in test [2], more than 100 µM; in test [3], more than 100 µM; in test [4], 92 µM; in [5] it was more than 100 µM; in test [7], more than 100 µM. Besides, the TGI is more than 100 µM in test [8], 78.9 µM in [9] and more than 100 µM in test [10].
With `CC(C)(C)C1CCC2c3c([nH]c4ccccc34)C3C(=O)N(c4ccc(Cl)cc4)C(=O)C3C2C1` (stereo unspecified), the GI50 was 76.5 µM and > 10 µM in test [1]; 63.9 µM and > 10 µM in test [3]; more than 100 µM in test [4]; more than 100 µM in test [5]; 44.3 µM and > 10 µM in test [6]; more than 100 µM in [7]. Also, in test [9], the GI50 was 48.5 µM and > 10 µM. Also, the TGI in test [1], in test [3], in test [4], in [5], in [6] and in test [7] was more than 100 µM in each case. Besides, the TGI in [8] is 0.256 µM; in test [9], more than 100 µM; in test [10], 39.5 µM and > 10 µM.
In the case of `CCC(C)[C@H](NC(=O)Nc1cc(C(F)(F)F)cc(C(F)(F)F)c1)C(=O)N[C@@H](Cc1cn(C)cn1)C(=O)OC` (stereo partly specified), the GI50 in test [1] was 1.4 µM; in test [2] it was 2.08 µM; in test [4] it was 1.47 µM; in test [5], 1.04 µM; in [6], 0.788 µM; in test [7] it was 0.825 µM. The values for the GI50 in [8], in test [9] and in test [10] were 1.32 µM, 0.523 µM and 0.801 µM, respectively. Also, the TGI in test [1] came out at 2.01 µM; in test [2], 4 µM; in test [4], 2.61 µM; in test [5] it was 2.06 µM; in test [6], 1.83 µM; in test [7], 1.85 µM. In addition, the figures for the TGI in [8], in [9] and in test [10] were 1.83 µM, 0.98 µM and 2.08 µM, respectively.
